Here are results for one compound from patent US20220370467A1, “USING OF A PPAR-DELTA AGONIST IN THE TREATMENT OF KIDNEY DISEASE” (Reneo Pharmaceuticals, Inc., priority 2019, published 2022).

One assay has as its target T1, hPPARδ (Homo sapiens, UniProt Q03181).
T1 construct: (PPARδ: aa 128—C-terminus); expressed in transfected cells; host or cells: HEK293
T1 sequence (Q03181 128-441 limits assumed): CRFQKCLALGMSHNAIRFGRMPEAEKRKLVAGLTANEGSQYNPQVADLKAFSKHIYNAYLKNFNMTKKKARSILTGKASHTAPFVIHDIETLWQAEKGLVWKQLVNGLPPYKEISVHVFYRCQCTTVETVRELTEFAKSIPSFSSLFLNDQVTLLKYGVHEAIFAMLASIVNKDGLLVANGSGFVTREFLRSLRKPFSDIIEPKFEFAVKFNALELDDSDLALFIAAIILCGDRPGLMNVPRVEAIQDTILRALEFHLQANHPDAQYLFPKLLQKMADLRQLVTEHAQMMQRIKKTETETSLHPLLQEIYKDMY
Kind of assay: in vitro assay on human PPAR subtypes (transactivation): hPPARδ. The assay is classed as cell-based. The text has this:
“Activation” here is defined as the abovementioned downstream response, which in the case of PPAR's is gene transcription. Gene transcription may be measured indirectly as downstream production of proteins reflective of the activation of the particular PPAR subtype under study. Alternatively, an artificial reporter construct may be employed to study the activation of the individual PPAR's expressed in cells. The ligand binding domain of the particular receptor to be studied may be fused to the DNA binding domain of a transcription factor, which produces convenient laboratory readouts, such as the yeast GAL4 transcription factor DNA binding domain. The fusion protein may be transfected into a laboratory cell line along with a Gal4 enhancer, which effects the expression of the luciferase protein. When such a system is transfected into a laboratory cell line, binding of a receptor agonist to the fusion protein will result in light emission.
The PPAR transient transactivation assay may be based on transient transfection into human HEK293 cells of two plasmids encoding a chimeric test protein and a reporter protein respectively. The chimeric test protein may be a fusion of the DNA binding domain (DBD) from the yeast GAL4 transcription factor to the ligand binding domain (LBD) of the human PPAR proteins. The PPAR-LBD moiety harbored in addition to the ligand binding pocket also has the native activation domain, allowing the fusion protein to function as a PPAR ligand dependent transcription factor. The GAL4 DBD will direct the chimeric protein to bind only to Gal4 enhancers (of which none existed in HEK293 cells). The reporter plasmid contained a Gal4 enhancer driving the expression of the firefly luciferase protein. After transfection, HEK293 cells expressed the GAL4-DBD-PPAR-LBD fusion protein. The fusion protein will in turn bind to the Gal4 enhancer controlling the luciferase expression, and do nothing in the absence of ligand. […] The amount of luciferase protein is measured by light emission after addition of the appropriate substrate. […]

The test system of another assay is 2K1C rat clipped kidney. The settings on record: cited from earlier work.

`Cc1cc(OC/C=C(/c2ccc(F)cc2)c2ccc(C#CCN3CCOCC3)cc2)ccc1OCC(=O)O` [Compound 1, (E)-[4-[3-(4-Fluorophenyl)-3-[4-[3-(morpholin-4-yl)propynyl]phenyl]allyloxy]-2-methyl-phenoxy]acetic acid]: the “agonist type on PPARδ” value at hPPARδ is given as “full agonist”. Besides, at hPPARδ (versus PPARα), the “selectivity for PPARδ over PPARα” value was “at least 100 fold”. In addition, the “selectivity for PPARδ over PPARγ” value at hPPARδ (versus PPARγ) was “at least 400 fold”. For the same compound, in the assay on 2K1C rat clipped kidney (2K1C rat kidneys), the “levels of MCAD, COXIV, TFAM and Parkin proteins and AMPK activation” value is “remained at the physiological levels”; the “mitochondrial biogenesis and autophagy (PGC1-a, LC3-II, ATG5)” value is “inhibited similarly in both treated and untreated”. In the assay on 2K1C rat clipped kidney (2K1C rat, compared to untreated animals), the “BNIP3 protein in the mitochondrial fraction” value is “decreased notably”. Further, the “nuclear amounts of oxidative stress-responsive proteins NRF1 and NRF2” value in the assay on 2K1C rat clipped kidney (2K1C rat, treated kidneys) was “below physiological levels”. Further, the “histochemical features of necrosis in clipped kidney” value with 2K1C rat clipped kidney (2K1C rat, treated vs untreated clipped kidneys) is on record as “did not exhibit any histochemical features of necrosis”. Further, in the assay with 2K1C rat clipped kidney (2K1C rat), the “fibrotic lesions in clipped kidney” value is on record as “present only in perivascular areas” and the “oxidative stress in kidneys” value is on record as “attenuated”.
